A short description of data set [1]: Solubility in organic solvents. The format is physicochemical.
The nature of data set [2]: Stability at air and room temperature, NMR spectra at t=0 and t=10 months. The format is physicochemical. Particulars: NMR spectra at t=0 and t=10 months (FIG. 5).

Take `Cc1cc(C)c(B2N(c3ccccc3)B(c3c(C)cc(C)cc3C)N(c3ccccc3)B(c3c(C)cc(C)cc3C)N2c2ccccc2)c(C)c1` [borazine derivative 1, N,N′,N″-triphenyl-B,B,B″-tri(2,4,6-trimethyl)phenyl borazine]: the Solubility in data set [1] (solvent: Chloroform) was 54 Milligram/milliliter; in data set [1] (solvent: Dichloromethane), 102 Milligram/milliliter; in data set [1] (solvent: Ethyl acetate), 62 Milligram/milliliter; in data set [1] (solvent: Toluene) it was 45 Milligram/milliliter. In data set [2], the “Stability at air and room temperature” value is on record as “excellent stability”.
For `CCCCCCCCCCCCc1ccc(N2B(c3c(C)cc(C)cc3C)N(c3ccc(CCCCCCCCCCCC)cc3)B(c3c(C)cc(C)cc3C)N(c3ccc(CCCCCCCCCCCC)cc3)B2c2c(C)cc(C)cc2C)cc1` [borazine derivative 2, N,N′,N″-tri(4-dodecyl)phenyl-B,B,B″-tri(2,4,6-trimethyl)phenyl borazine], the “Solubility (miscibility)” value in data set [1] (compound is an oil, toluene, ethyl acetate, dichloromethane, benzene and chloroform) was “miscible”.

Source of the values: patent publication US9040749B2, “Borazine derivatives” (UNIVERSITE DE NAMUR, priority 2011, dated 2015).
